# Laboratory results from the NIST ThermoML archive (doi:10.1021/je1012857).
# ± gives the expanded uncertainty stated by the source.
# Experiment: xn = mol fraction of the nth substance listed
# Details: 101 kPa, Liquid; for speed of sound: Sing-around technique in a fixed-path interferometer; for viscosity: Capillary tube (Ostwald / Ubbelohde) method
compound,measurement,setting,value
"NCCN [ethane-1,2-diamine] + CC(C)CO",speed of sound,"293.15 K, x1 = 0.0664",1236.6 ± 1.2 m/s
same,speed of sound,"293.15 K, x1 = 0.0967",1250.3 ± 1.2 m/s
same,speed of sound,"293.15 K, x1 = 0.1652",1280.8 ± 1.2 m/s
same,speed of sound,"293.15 K, x1 = 0.2002",1296.8 ± 1.3 m/s
same,speed of sound,"293.15 K, x1 = 0.2617",1324.1 ± 1.3 m/s
same,speed of sound,"293.15 K, x1 = 0.3019",1342.3 ± 1.3 m/s
same,speed of sound,"293.15 K, x1 = 0.4093",1389.6 ± 1.3 m/s
same,speed of sound,"293.15 K, x1 = 0.5014",1431 ± 1.3 m/s
same,speed of sound,"293.15 K, x1 = 0.6011",1478 ± 1.3 m/s
same,speed of sound,"293.15 K, x1 = 0.6911",1520.5 ± 1.3 m/s
same,speed of sound,"293.15 K, x1 = 0.7887",1571.6 ± 1.3 m/s
same,speed of sound,"293.15 K, x1 = 0.8471",1603.7 ± 1.3 m/s
same,speed of sound,"293.15 K, x1 = 0.8998",1634.3 ± 1.4 m/s
same,speed of sound,"293.15 K, x1 = 0.9391",1658.5 ± 1.4 m/s
same,mass density,"293.15 K, x1 = 0.0664",809.959 ± 0.55 kg/m3
same,mass density,"293.15 K, x1 = 0.0967",813.41 ± 0.55 kg/m3
same,mass density,"293.15 K, x1 = 0.1652",821.052 ± 0.54 kg/m3
same,mass density,"293.15 K, x1 = 0.2002",824.886 ± 0.53 kg/m3
same,mass density,"293.15 K, x1 = 0.2617",831.17 ± 0.53 kg/m3
same,mass density,"293.15 K, x1 = 0.3019",835.134 ± 0.52 kg/m3
same,mass density,"293.15 K, x1 = 0.4093",844.755 ± 0.51 kg/m3
same,mass density,"293.15 K, x1 = 0.5014",852.563 ± 0.5 kg/m3
same,mass density,"293.15 K, x1 = 0.6011",861.131 ± 0.49 kg/m3
same,mass density,"293.15 K, x1 = 0.6911",868.086 ± 0.48 kg/m3
same,mass density,"293.15 K, x1 = 0.7887",876.941 ± 0.47 kg/m3
same,mass density,"293.15 K, x1 = 0.8471",882.565 ± 0.46 kg/m3
same,mass density,"293.15 K, x1 = 0.8998",887.801 ± 0.46 kg/m3
same,mass density,"293.15 K, x1 = 0.9391",892.054 ± 0.45 kg/m3
same,viscosity,"298.15 K, x1 = 0.0664",3.231 ± 0.024 mPa·s
same,viscosity,"298.15 K, x1 = 0.0967",3.209 ± 0.024 mPa·s
same,viscosity,"298.15 K, x1 = 0.1652",3.134 ± 0.024 mPa·s
same,viscosity,"298.15 K, x1 = 0.2002",3.094 ± 0.023 mPa·s
same,viscosity,"298.15 K, x1 = 0.2617",3.006 ± 0.023 mPa·s
same,viscosity,"298.15 K, x1 = 0.3019",2.94 ± 0.022 mPa·s
same,viscosity,"298.15 K, x1 = 0.4093",2.724 ± 0.021 mPa·s
same,viscosity,"298.15 K, x1 = 0.5014",2.495 ± 0.019 mPa·s
same,viscosity,"298.15 K, x1 = 0.6011",2.216 ± 0.017 mPa·s
same,viscosity,"298.15 K, x1 = 0.6911",1.958 ± 0.015 mPa·s
same,viscosity,"298.15 K, x1 = 0.7887",1.716 ± 0.014 mPa·s
same,viscosity,"298.15 K, x1 = 0.8471",1.591 ± 0.013 mPa·s
same,viscosity,"298.15 K, x1 = 0.8998",1.501 ± 0.013 mPa·s
same,viscosity,"298.15 K, x1 = 0.9391",1.456 ± 0.012 mPa·s
same,speed of sound,"298.15 K, x1 = 0.0664",1219.4 ± 1.2 m/s
same,speed of sound,"298.15 K, x1 = 0.0967",1233.1 ± 1.2 m/s
same,speed of sound,"298.15 K, x1 = 0.1652",1263.3 ± 1.2 m/s
same,speed of sound,"298.15 K, x1 = 0.2002",1279.2 ± 1.2 m/s
same,speed of sound,"298.15 K, x1 = 0.2617",1306.3 ± 1.3 m/s
same,speed of sound,"298.15 K, x1 = 0.3019",1324.5 ± 1.3 m/s
same,speed of sound,"298.15 K, x1 = 0.4093",1371.4 ± 1.3 m/s
same,speed of sound,"298.15 K, x1 = 0.5014",1412.2 ± 1.3 m/s
same,speed of sound,"298.15 K, x1 = 0.6011",1458.7 ± 1.3 m/s
same,speed of sound,"298.15 K, x1 = 0.6911",1500.6 ± 1.3 m/s
same,speed of sound,"298.15 K, x1 = 0.7887",1550.9 ± 1.3 m/s
same,speed of sound,"298.15 K, x1 = 0.8471",1582.6 ± 1.3 m/s
same,speed of sound,"298.15 K, x1 = 0.8998",1612.7 ± 1.3 m/s
same,speed of sound,"298.15 K, x1 = 0.9391",1636.5 ± 1.4 m/s
same,mass density,"298.15 K, x1 = 0.0664",806.006 ± 0.56 kg/m3
same,mass density,"298.15 K, x1 = 0.0967",809.413 ± 0.55 kg/m3
same,mass density,"298.15 K, x1 = 0.1652",816.964 ± 0.54 kg/m3
same,mass density,"298.15 K, x1 = 0.2002",820.75 ± 0.54 kg/m3
same,mass density,"298.15 K, x1 = 0.2617",826.969 ± 0.53 kg/m3
same,mass density,"298.15 K, x1 = 0.3019",830.903 ± 0.53 kg/m3
same,mass density,"298.15 K, x1 = 0.4093",840.455 ± 0.52 kg/m3
same,mass density,"298.15 K, x1 = 0.5014",848.217 ± 0.51 kg/m3
same,mass density,"298.15 K, x1 = 0.6011",856.736 ± 0.49 kg/m3
same,mass density,"298.15 K, x1 = 0.6911",863.637 ± 0.49 kg/m3
same,mass density,"298.15 K, x1 = 0.7887",872.42 ± 0.48 kg/m3
same,mass density,"298.15 K, x1 = 0.8471",878.003 ± 0.47 kg/m3
same,mass density,"298.15 K, x1 = 0.8998",883.197 ± 0.46 kg/m3
same,mass density,"298.15 K, x1 = 0.9391",887.411 ± 0.46 kg/m3
same,viscosity,"303.15 K, x1 = 0.0664",2.711 ± 0.021 mPa·s
same,viscosity,"303.15 K, x1 = 0.0967",2.699 ± 0.02 mPa·s
same,viscosity,"303.15 K, x1 = 0.1652",2.648 ± 0.02 mPa·s
same,viscosity,"303.15 K, x1 = 0.2002",2.625 ± 0.02 mPa·s
same,viscosity,"303.15 K, x1 = 0.2617",2.553 ± 0.019 mPa·s
same,viscosity,"303.15 K, x1 = 0.3019",2.502 ± 0.019 mPa·s
same,viscosity,"303.15 K, x1 = 0.4093",2.325 ± 0.018 mPa·s
same,viscosity,"303.15 K, x1 = 0.5014",2.135 ± 0.017 mPa·s
same,viscosity,"303.15 K, x1 = 0.6011",1.895 ± 0.015 mPa·s
same,viscosity,"303.15 K, x1 = 0.6911",1.698 ± 0.014 mPa·s
same,viscosity,"303.15 K, x1 = 0.7887",1.502 ± 0.013 mPa·s
same,viscosity,"303.15 K, x1 = 0.8471",1.404 ± 0.012 mPa·s
same,viscosity,"303.15 K, x1 = 0.8998",1.335 ± 0.012 mPa·s
same,viscosity,"303.15 K, x1 = 0.9391",1.294 ± 0.011 mPa·s
same,speed of sound,"303.15 K, x1 = 0.0664",1202.4 ± 1.2 m/s
same,speed of sound,"303.15 K, x1 = 0.0967",1216 ± 1.2 m/s
same,speed of sound,"303.15 K, x1 = 0.1652",1246.1 ± 1.2 m/s
same,speed of sound,"303.15 K, x1 = 0.2002",1261.8 ± 1.2 m/s
same,speed of sound,"303.15 K, x1 = 0.2617",1288.6 ± 1.2 m/s
same,speed of sound,"303.15 K, x1 = 0.3019",1306.7 ± 1.3 m/s
same,speed of sound,"303.15 K, x1 = 0.4093",1353.1 ± 1.3 m/s
